Measurements as given in paper PMC4546427, “Stereoselective Regulation of P-gp Activity by Clausenamide Enantiomers in Caco-2, KB/KBv and Brain Microvessel Endothelial Cells” (PLoS ONE, 2015).
Values joined by “and” are separate entries in the source; they are usually repeats but may differ in a detail not shown here. Equal entries are not always repeated.

Experiments:
[1] = set-up: method as in PMID 12923804; details: rats; oral administration; n = 6; cited from earlier work
P-gp [2] = assay: Rh123 accumulation in RBMECs; format: cell-based, rat; details: RBMEC; for Increase in Rh123 accumulation relative to verapamil alone: co-treatment CLA 5 μmol/L with verapamil 200 μmol/L; for Percentage of rhodamine 123 accumulation relative to vehicle treatment: positive = increase
Procedure: The experimental programs in this part were approved by the Animal Care and Welfare Committee in our institute. Animals were treated in accordance with national/international guidelines. Primary cultures of brain microvessel endothelial cells were prepared from Sprague—Dawley rats (10–12 days old; Beijing Vital River Company, Beijing, China), as previously described by Qian et al.[21]. The gray matter of animals was taken out and minced into small pieces of approximately 1 mm^3 in ice-cold MEM medium, then dissociated by using 2 mg/mL collagenase containing DNase at a final concentration of 10.5 μg/ml on a shaker for 20 min at 37°C. The cells were pelleted by centrifugation(1000 rpm, 10 min, 4°C) and digested once again according to the above protocol. Then 20% dextran(Mr 40,000) was added to the cells for differential centrifugation at 2000 rpm for 10 min. The cells were re-suspended in complete MEM medium and passed through 74-μm stainless steel mesh. Obtained RBMECs were seeded on 1% (w/v) gelatin-coated culture flasks and cultivated in complete medium (MEM, 20% FBS, 0.9 mg/mL glutamate, 10 mmol/L hepes, 100 ng/mL bFGF, 100 μg/mL heparin sulphate, 100 units/mL penicillin, 100 μg/mL streptomycin sulphate and 50 units/mL amphotericin B) at 37°C and 5% CO2, which was refreshed with complete medium 4 h after seeding to eliminate non-endothelial cells. A final concentration of 2 μg/mL of puromycin was added for 7 h to further purify the cultured cells. The purity of RBMECs was examined by their morphological characteristics using a phase-contrast microscope, and immunocytochemistry of a specific marker, factor VIII-associated antigen, with a rabbit anti-factor VIII polyclonal antibody and FITC-conjugated goat anti-rabbit factor VIII secondary antibody by immunofluorescence microscopy (Olympus IX 70-S1Z2, Olympus Optical CO. Ltd., Japan). The P-gp expression in cultured cells was determined by Western blot analyses using a mouse monoclonal antibody raised against amino acids 1040–1280 of P-gp. When the cultures in the flasks reached 80%–90% confluence, the purified RBMECs were passaged by a brief treatment with trypsin (0.25%, w/v) and EDTA (0.02%, w/v) solution and seeded onto 6-well plates at a density of 5 × 10^5 cells/well; after 2–3 days, incubated with the following agents for 2 h under culture conditions (37°C, 5% CO2 and humidified air): vehicle; (−)CLA (1 or 5 μmol/L); (+)CLA (1 or 5 μmol/L); verapamil (200 μmol/L); or individual enantiomer (1 or 5 μmol/L) plus verapamil (200 μmol/L). In the end, Rh123 (5 μmol/L) was added to the whole wells. The cell incubation, solubilisation and Rh123 accumulation were performed according to the same method for Caco-2 cells described above.
Primary cultures of brain microvessel endothelial cells were prepared from Sprague–Dawley rats (10–12 days old; Beijing Vital River Company, Beijing, China), as previously described by Qian et al.[21]. Animals were anesthetized by intraperitoneal injection of 20% ethyl carbamate at dose of 1g/kg[35], and sterilized by immersion in 75% alcohol solution for 2 min. The gray matter of these animals was taken out and minced into small pieces of approximately 1 mm^3 in ice-cold MEM medium, then dissociated by using 2 mg/mL collagenase containing DNase at a final concentration of 10.5 μg/ml on a shaker for 20 min at 37°C. The cells were pelleted by centrifugation(1000 rpm, 10 min, 4°C) and digested once again according to the above protocol. Then 20% dextran(Mr 40,000) was added to the cells for differential centrifugation at 2000 rpm for 10 min. The cells were re-suspended in complete MEM medium and passed through 74-μm stainless steel mesh. […]

[3] = set-up: method as in PMID 18655159; details: cited from earlier work
P-gp [4] = target: T1, P-gp (Homo sapiens, UniProt P08183); assay: Rh123 accumulation in Caco-2 cells; format: cell-based; details: for Percentage of rhodamine 123 accumulation relative to vehicle treatment: positive = increase; for More Rh123 accumulation than verapamil alone: verapamil 200 μmol/L plus CLA 5 μmol/L
T1 construct: three cells expressing P-gp, Caco-2, KBv and rat brain microvessel endothelial cells (RBMEC); endogenous in cells; host or cells: Caco-2
Procedure: Caco-2 cells were seeded onto 6-well plates at a density of 5 × 10^5 cells/well and maintained in MEM supplemented with 10% (v/v) FBS, 1% (v/v) NEAA, 100 units/mL penicillin and 100 μg/mL streptomycin sulphate in a humidified 37°C incubator with 5% CO2. Upon 80%–90% confluence, the cells were provided new complete medium (2 mL/well) and exposed, to vehicle, (−)CLA (1 or 5 μmol/L), (+)CLA (1 or 5 μmol/L), verapamil (200 μmol/L) or individual enantiomer (1 or 5 μmol/L) plus verapamil (200 μmol/L). Then, Rh123 (5 μmol/L) was added to all the wells. After incubation at 37°C and 5% CO2 for 2 h which was designed by the pharmacokinetic parameters of CLA enantiomers, the cells were washed 3 times with 2 mL of ice-cold PBS (pH 7.4), lysed in 400 μL of lysis buffer [50 mmol/L Tris-HCl (pH 8.0), 150 mmol/L NaCl, 0.1% SDS, 100 μg/mL PMSF, 1 μg/mL aprotinin and 1% Nonidet P-40], and then were placed on ice for 40 min. The plates were wrapped in tinfoil. The fluorescence of Rh123 in each well was detected by Spectra Max Gemini XS plate reader (Molecular Devices Corp., Sunnyvale, CA, USA) with excitation and emission wavelengths of 488 nm and 530 nm, respectively. Meanwhile, 10 μL of cell lysates were collected from each well to measure protein concentration using Lowry’s method. Intracellular Rh123 accumulation was normalized by protein concentration (mg/mL) and then was calculated by a standard curve of Rh123 at three concentrations (2.5–10 μmol/L), in parallel with the lysis experiment.

[5] = CLA 1 μmol/L, Rh123 5 μmol/L, 2 h
[6] = high dose, CLA 5 μmol/L, Rh123 5 μmol/L, 2 h
[7] = low dose, CLA 1 μmol/L, Rh123 5 μmol/L, 2 h

T1 sequence (P08183 whole entry): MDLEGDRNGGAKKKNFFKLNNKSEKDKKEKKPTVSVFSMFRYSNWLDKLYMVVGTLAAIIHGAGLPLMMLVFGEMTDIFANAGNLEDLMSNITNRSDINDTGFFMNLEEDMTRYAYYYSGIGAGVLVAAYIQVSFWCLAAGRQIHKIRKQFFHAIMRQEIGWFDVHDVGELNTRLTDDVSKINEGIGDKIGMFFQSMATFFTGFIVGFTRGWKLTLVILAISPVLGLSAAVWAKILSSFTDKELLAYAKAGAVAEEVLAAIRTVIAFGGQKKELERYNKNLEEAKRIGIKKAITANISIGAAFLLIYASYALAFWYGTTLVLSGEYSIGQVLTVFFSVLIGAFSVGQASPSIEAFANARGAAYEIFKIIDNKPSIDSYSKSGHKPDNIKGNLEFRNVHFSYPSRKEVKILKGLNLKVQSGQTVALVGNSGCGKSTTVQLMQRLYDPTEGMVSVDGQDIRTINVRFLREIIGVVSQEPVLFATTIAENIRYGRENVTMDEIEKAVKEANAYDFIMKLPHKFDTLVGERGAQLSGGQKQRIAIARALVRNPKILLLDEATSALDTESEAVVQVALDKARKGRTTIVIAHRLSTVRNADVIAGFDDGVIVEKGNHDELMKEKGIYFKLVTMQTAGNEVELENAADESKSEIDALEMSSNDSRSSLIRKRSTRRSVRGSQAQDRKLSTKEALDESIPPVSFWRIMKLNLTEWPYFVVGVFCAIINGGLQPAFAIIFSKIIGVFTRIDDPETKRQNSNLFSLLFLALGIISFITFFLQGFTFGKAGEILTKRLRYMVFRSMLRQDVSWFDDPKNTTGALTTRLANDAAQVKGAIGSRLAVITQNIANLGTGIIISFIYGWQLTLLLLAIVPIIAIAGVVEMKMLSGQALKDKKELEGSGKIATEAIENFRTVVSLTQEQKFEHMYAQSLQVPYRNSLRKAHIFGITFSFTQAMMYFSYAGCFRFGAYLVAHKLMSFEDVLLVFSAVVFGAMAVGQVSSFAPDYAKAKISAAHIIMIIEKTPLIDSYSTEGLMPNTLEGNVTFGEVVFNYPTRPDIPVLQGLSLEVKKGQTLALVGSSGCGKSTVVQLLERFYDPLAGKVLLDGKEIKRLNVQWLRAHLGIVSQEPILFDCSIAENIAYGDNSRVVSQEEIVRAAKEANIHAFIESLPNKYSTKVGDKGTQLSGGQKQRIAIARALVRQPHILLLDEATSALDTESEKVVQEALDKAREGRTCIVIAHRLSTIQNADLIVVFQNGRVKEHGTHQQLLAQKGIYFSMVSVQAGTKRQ

Row | SMILES | AUC0–12 h [1] | Decrease of Rh123 accumulation relative to vehicle control (P-gp [2]; [5]) | Increase in Rh123 accumulation relative to verapamil alone (P-gp [2]) | Decrease in Rh123 accumulation relative to verapamil alone (P-gp [2]; co-treatment of verapamil 200 μmol/L with CLA 1 μmol/L) | Percentage of rhodamine 123 accumulation relative to vehicle treatment (P-gp [2]; [6]) | Percentage of rhodamine 123 accumulation relative to vehicle treatment (P-gp [2]; [7]) | AUC0–∞ in target tissues (hippocampus, cortex and cerebellum), comparison of enantiomers [3] | Decrease of Rh123 intracellular accumulation relative to vehicle control (P-gp [4]; [5]) | Reduction of Rh123 intracellular concentration relative to verapamil treatment alone (P-gp [4]; co-treatment CLA 1 μmol/L with verapamil 200 μmol/L) | Percentage of rhodamine 123 accumulation relative to vehicle treatment (P-gp [4]; [6]) | Percentage of rhodamine 123 accumulation relative to vehicle treatment (P-gp [4]; [7]) | More Rh123 accumulation than verapamil alone (P-gp [4]) | Rh123 accumulation relative to verapamil alone (in words) (P-gp [2]; verapamil 200 μmol/L plus CLA 1 μmol/L) | Amount that entered into rat brain, comparison of enantiomers ([3]; 15 min after oral administration, P < 0.001)
1 | CN1C(=O)[C@H](O)[C@@H](c2ccccc2)[C@H]1[C@H](O)c1ccccc1 [(+)CLA, 3R,4S,5S,6R-CLA] | 2446 ± 540 µg·min/mL | 20.0% | 18.5% | 26.5% | 41.1% and 41.13% | -20.04% | greater values for AUC0–∞ than did (−)CLA | 11.7% | 29.3% | 58.2% and 58.22% | -11.68% | 23.1% |  | 
2 | CN1C(=O)[C@@H](O)[C@H](c2ccccc2)[C@@H]1[C@@H](O)c1ccccc1 [(−)CLA, 3S, 4R, 5R, 6S-clausenamide] | 1256 ± 308 µg·min/mL |  | 24.5% |  | 58.46% | 20.0% and 20.04% |  |  |  | 63.0% and 62.97% | 28.5% and 28.51% | 24.2% | slightly increased trend | significantly greater than that of the (+)-isomer
